Tested on: MV-4-11 cells
Assay: Gene expression microarray analysis (Affymetrix PrimeView) and GSEA
Type: cell-based, human
Set-up: RFU PODN (11730768_x_at) / Fold change /veh PODN (11730768_x_at) / RFU LINC00158 (11744669_a_at) / Fold change /veh LINC00158 (11744669_a_at) / RFU DUSP10 (11751237_a_at) / Fold change /veh DUSP10 (11751237_a_at) / RFU ID3 (11757404_x_at) / Fold change /veh ID3 (11757404_x_at) / RFU PLEKHG5 (11737974_s_at) / Fold change /veh PLEKHG5 (11737974_s_at) / RFU LRRC4B (11730491_at) / Fold change /veh LRRC4B (11730491_at) / RFU GIMAP4 (11747438_a_at) / Fold change /veh GIMAP4 (11747438_a_at) / RFU KRT8 (11758183_x_at) / Fold change /veh KRT8 (11758183_x_at) / RFU CNN1 (11734310_a_at) / Fold change /veh CNN1 (11734310_a_at) / RFU VPS37D (11726825_at) / Fold change /veh VPS37D (11726825_at) / RFU C10orf10 (11716522_x_at) / Fold change /veh C10orf10 (11716522_x_at) / RFU KIR2DL2 /// KIR2DL4 /// KIR2DL5A /// KIR2DL5B /// KIR2DS1 /// KIR2DS2 /// KIR2DS3 /// KIR2DS4 /// KIR3DL3 /// KIR3DL3 /// KIR3DS1 (11738374_at) / Fold change /veh KIR2DL2 /// KIR2DL4 /// KIR2DL5A /// KIR2DL5B /// KIR2DS1 /// KIR2DS2 /// KIR2DS3 /// KIR2DS4 /// KIR3DL3 /// KIR3DL3 /// KIR3DS1 (11738374_at) / RFU C1QL1 (11718748_at) / Fold change /veh C1QL1 (11718748_at) / RFU TMPRSS4 (11747572_a_at) / Fold change /veh TMPRSS4 (11747572_a_at) / RFU HAMP (11756126_x_at) / Fold change /veh HAMP (11756126_x_at) / RFU RNFT2 (11725882_a_at) / Fold change /veh RNFT2 (11725882_a_at) / RFU NR4A2 (11747474_a_at) / Fold change /veh NR4A2 (11747474_a_at) / RFU ABCC12 (11746883_a_at) / Fold change /veh ABCC12 (11746883_a_at) / RFU TMEM136 (11760407_x_at) / Fold change /veh TMEM136 (11760407_x_at) / RFU CLDN22 /// WWC2 (11732394_at) / Fold change /veh CLDN22 /// WWC2 (11732394_at) / RFU HLA-DPB1 (11760878_x_at) / Fold change /veh HLA-DPB1 (11760878_x_at) / RFU SPINT1 (11716480_a_at) / Fold change /veh SPINT1 (11716480_a_at) / RFU GAP43 (11754022_s_at) / Fold change /veh GAP43 (11754022_s_at) / RFU A4GNT (11735810_at) / Fold change /veh A4GNT (11735810_at) / RFU PRB3 (11715151_x_at) / Fold change /veh PRB3 (11715151_x_at) / RFU TUBB4B (11761932_at) / Fold change /veh TUBB4B (11761932_at) / RFU CAPN14 (11732068_a_at) / Fold change /veh CAPN14 (11732068_a_at) / RFU TMCC2 (11721928_a_at) / Fold change /veh TMCC2 (11721928_a_at) / RFU IRGQ (11745062_a_at) / Fold change /veh IRGQ (11745062_a_at) / RFU FAM174B (11720279_a_at) / Fold change /veh FAM174B (11720279_a_at) / RFU TMPRSS4 (11748680_a_at) / Fold change /veh TMPRSS4 (11748680_a_at) / RFU FAM212B (11763350_a_at) / Fold change /veh FAM212B (11763350_a_at) / RFU PLEKHG5 (11743358_a_at) / Fold change /veh PLEKHG5 (11743358_a_at) / RFU ZSCAN30 (11745921_a_at) / Fold change /veh ZSCAN30 (11745921_a_at) / RFU CMKLR1 (11741424_a_at) / Fold change /veh CMKLR1 (11741424_a_at) / RFU LOC101060620 /// MAPK8IP1 (11723275_at) / Fold change /veh LOC101060620 /// MAPK8IP1 (11723275_at) / RFU SPTSSB (11747773_x_at) / Fold change /veh SPTSSB (11747773_x_at) / RFU PRSS12 (11739890_at) / Fold change /veh PRSS12 (11739890_at) / RFU BIN1 (11741810_x_at) / Fold change /veh BIN1 (11741810_x_at) / RFU WNT11 (11732464_a_at) / Fold change /veh WNT11 (11732464_a_at) / RFU C10orf10 (11716521_a_at) / Fold change /veh C10orf10 (11716521_a_at) / RFU C5orf56 (11738089_at) / Fold change /veh C5orf56 (11738089_at) / RFU CYB561 (11721691_x_at) / Fold change /veh CYB561 (11721691_x_at) / RFU ANKRD19P (11752326_a_at) / Fold change /veh ANKRD19P (11752326_a_at) / RFU OR2T12 /// OR2T33 /// OR2T8 (11738714_s_at) / Fold change /veh OR2T12 /// OR2T33 /// OR2T8 (11738714_s_at) / RFU VCAN (11748164_a_at) / Fold change /veh VCAN (11748164_a_at) / RFU JSRP1 (11732532_at) / Fold change /veh JSRP1 (11732532_at) / RFU KRTAP10-11 (11738290_x_at) / Fold change /veh KRTAP10-11 (11738290_x_at) / RFU MYO3A (11730013_a_at) / Fold change /veh MYO3A (11730013_a_at) / RFU EBF3 (11725865_a_at) / Fold change /veh EBF3 (11725865_a_at) / RFU CAMK2N1 (11719241_x_at) / Fold change /veh CAMK2N1 (11719241_x_at) / RFU C5orf56 (11738088_a_at) / Fold change /veh C5orf56 (11738088_a_at) / RFU OLFML3 (11715873_a_at) / Fold change /veh OLFML3 (11715873_a_at) / RFU LOC100653217 /// NTM (11731650_a_at) / Fold change /veh LOC100653217 /// NTM (11731650_a_at) / RFU MAPK11 (11762145_a_at) / Fold change /veh MAPK11 (11762145_a_at) / RFU FIZ1 (11724087_x_at) / Fold change /veh FIZ1 (11724087_x_at) / RFU OASL (11726364_x_at) / Fold change /veh OASL (11726364_x_at) / RFU SOX15 (11748057_x_at) / Fold change /veh SOX15 (11748057_x_at) / RFU CD79A (11719716_a_at) / Fold change /veh CD79A (11719716_a_at) / RFU HIST1H1D (11736915_at) / Fold change /veh HIST1H1D (11736915_at) / RFU CASKIN2 (11723855_a_at) / Fold change /veh CASKIN2 (11723855_a_at) / RFU LOC730098 (11760151_x_at) / Fold change /veh LOC730098 (11760151_x_at) / RFU OR4N2 (11742367_at) / Fold change /veh OR4N2 (11742367_at) / RFU PRRT2 (11749266_a_at) / Fold change /veh PRRT2 (11749266_a_at) / RFU SNX32 (11753110_a_at) / Fold change /veh SNX32 (11753110_a_at) / RFU CDHR5 (11726645_a_at) / Fold change /veh CDHR5 (11726645_a_at) / RFU RCAN1 (11760418_a_at) / Fold change /veh RCAN1 (11760418_a_at) / RFU FAM167A (11723789_a_at) / Fold change /veh FAM167A (11723789_a_at) / RFU FAM26E (11764081_at) / Fold change /veh FAM26E (11764081_at) / RFU ISYNA1 (11749810_s_at) / Fold change /veh ISYNA1 (11749810_s_at) / RFU ACY1 (11761880_at) / Fold change /veh ACY1 (11761880_at) / RFU 11764098_at / Fold change /veh 11764098_at / RFU SAMD14 (11745864_x_at) / Fold change /veh SAMD14 (11745864_x_at) / RFU NPB (11741838_a_at) / Fold change /veh NPB (11741838_a_at) / RFU TMPRSS6 (11731388_a_at) / Fold change /veh TMPRSS6 (11731388_a_at) / RFU KRTAP10-2 (11738614_at) / Fold change /veh KRTAP10-2 (11738614_at) / RFU ARHGAP8 /// PRR5-ARHGAP8 (11727945_x_at) / Fold change /veh ARHGAP8 /// PRR5-ARHGAP8 (11727945_x_at) / RFU KRTAP5-7 /// NADSYN1 (11734609_at) / Fold change /veh KRTAP5-7 /// NADSYN1 (11734609_at) / RFU RASL12 (11751679_a_at) / Fold change /veh RASL12 (11751679_a_at) / RFU CDKN2B (11736163_a_at) / Fold change /veh CDKN2B (11736163_a_at) / RFU PRF1 (11729649_at) / Fold change /veh PRF1 (11729649_at) / RFU, ZNF638 /// ZNF638-IT1 / Fold change vs veh, ZNF638 /// ZNF638-IT1 / RFU, PANK3 / Fold change vs veh, PANK3 / RFU, SH3YL1 / Fold change vs veh, SH3YL1 / RFU, ZEB2 / Fold change vs veh, ZEB2 / RFU, NRIP1 / Fold change vs veh, NRIP1 / RFU, PTTG1IP / Fold change vs veh, PTTG1IP / RFU, CAPN2 / Fold change vs veh, CAPN2 / RFU, MED14 / Fold change vs veh, MED14 / RFU, SNORA58 / Fold change vs veh, SNORA58 / RFU, C1orf63 / Fold change vs veh, C1orf63 / RFU, LRRFIP1 / Fold change vs veh, LRRFIP1 / RFU, NDUFAF7 / Fold change vs veh, NDUFAF7 / RFU, SLC12A2 / Fold change vs veh, SLC12A2 / RFU, IBTK / Fold change vs veh, IBTK / RFU, ESF1 / Fold change vs veh, ESF1 / Fold change vs veh, TMEM50B / RFU, TAOK1 / Fold change vs veh, TAOK1 / RFU, ACBD3 / Fold change vs veh, ACBD3 / RFU, TMA16 / Fold change vs veh, TMA16 / RFU, RWDD3 / Fold change vs veh, RWDD3 / RFU, BCAT1 / Fold change vs veh, BCAT1 / RFU, EDEM3 / Fold change vs veh, EDEM3 / RFU, TMEM33 / Fold change vs veh, TMEM33 / RFU, WDR75 / Fold change vs veh, WDR75 / RFU, AHCTF1 / Fold change vs veh, AHCTF1 / RFU, TFRC / Fold change vs veh, TFRC / RFU, ZDHHC17 / Fold change vs veh, ZDHHC17 / RFU, NOM1 / Fold change vs veh, NOM1 / RFU, ARL8B / Fold change vs veh, ARL8B / RFU, ZBTB11 / Fold change vs veh, ZBTB11 / RFU, TAMM41 / Fold change vs veh, TAMM41 / RFU, KIAA1704 /// LOC100996395 / Fold change vs veh, KIAA1704 /// LOC100996395 / RFU, ING1 / Fold change vs veh, ING1 / RFU, TRMT61B / Fold change vs veh, TRMT61B / RFU, FUBP3 / Fold change vs veh, FUBP3 / RFU, TP53 / Fold change vs veh, TP53 / RFU, TNKS2 / Fold change vs veh, TNKS2 / RFU, ZFP14 / Fold change vs veh, ZFP14 / RFU, ACTR2 / Fold change vs veh, ACTR2 / RFU, PPP3R1 / Fold change vs veh, PPP3R1 / RFU, PIK3R1 / Fold change vs veh, PIK3R1 / RFU, HNRNPA1 / Fold change vs veh, HNRNPA1 / RFU, RNF170 / Fold change vs veh, RNF170 / RFU, ZNF28 / Fold change vs veh, ZNF28 / RFU, RNGTT / Fold change vs veh, RNGTT / RFU, OGT / Fold change vs veh, OGT / RFU, BRD1 / Fold change vs veh, BRD1 / RFU, MARS / Fold change vs veh, MARS / RFU, ZNF655 / Fold change vs veh, ZNF655 / RFU, FAHD1 / Fold change vs veh, FAHD1 / RFU, BDP1 / Fold change vs veh, BDP1 / RFU, LRRCC1 / Fold change vs veh, LRRCC1 / RFU, ARID1A / Fold change vs veh, ARID1A / RFU, ZNF146 / Fold change vs veh, ZNF146 / RFU, ZNF330 / Fold change vs veh, ZNF330 / RFU, GPN3 / Fold change vs veh, GPN3 / RFU, C9orf123 / Fold change vs veh, C9orf123 / RFU, N4BP2L2 / Fold change vs veh, N4BP2L2 / RFU, ARFIP1 / Fold change vs veh, ARFIP1 / RFU, FAM179B / Fold change vs veh, FAM179B / RFU, BCL10 / Fold change vs veh, BCL10 / RFU, UHRF1BP1L / Fold change vs veh, UHRF1BP1L / RFU, BET1 / Fold change vs veh, BET1 / RFU, CNOT2 / Fold change vs veh, CNOT2 / RFU, ZNF268 / Fold change vs veh, ZNF268 / Fold change vs veh, ZNF507 / RFU, DGCR2 / Fold change vs veh, DGCR2 / RFU, WDSUB1 / Fold change vs veh, WDSUB1 / Fold change vs veh, HSP90B1 /// MIR3652 / RFU, ADSS / Fold change vs veh, ADSS / RFU, GK / Fold change vs veh, GK / RFU, ZNF148 / Fold change vs veh, ZNF148 / RFU, TAF9 / Fold change vs veh, TAF9 / RFU, SLC1A5 / Fold change vs veh, SLC1A5 / RFU, SLMO2 / Fold change vs veh, SLMO2 / RFU, ABCC4 / Fold change vs veh, ABCC4 / RFU, LOC101060439 /// RAP1B / Fold change vs veh, LOC101060439 /// RAP1B / RFU, RFX7 / Fold change vs veh, RFX7 / RFU, GTPBP10 / Fold change vs veh, GTPBP10 / RFU, CNEP1R1 / Fold change vs veh, CNEP1R1 / RFU, BIVM-ERCC5 /// ERCC5 / Fold change vs veh, BIVM-ERCC5 /// ERCC5 / RFU, ILF3 / Fold change vs veh, ILF3 / RFU 11762660_at / Fold change /veh 11762660_at / RFU VCAN (11757783_s_at) / Fold change /veh VCAN (11757783_s_at) / RFU DDX43 (11728927_at) / Fold change /veh DDX43 (11728927_at) / RFU KRT8 (11758188_x_at) / Fold change /veh KRT8 (11758188_x_at) / RFU NKD1 (11759106_at) / Fold change /veh NKD1 (11759106_at) / RFU SRD5A1 (11742802_a_at) / Fold change /veh SRD5A1 (11742802_a_at) / RFU TPSAB1 /// TPSB2 (11721975_s_at) / Fold change /veh TPSAB1 /// TPSB2 (11721975_s_at) / RFU GSTM3 (11746129_a_at) / Fold change /veh GSTM3 (11746129_a_at) / RFU IL23R (11737362_x_at) / Fold change /veh IL23R (11737362_x_at) / RFU TMEM51 (11727254_a_at) / Fold change /veh TMEM51 (11727254_a_at) / RFU PIWIL2 (11732686_x_at) / Fold change /veh PIWIL2 (11732686_x_at) / RFU ORM1 (11744905_x_at) / Fold change /veh ORM1 (11744905_x_at) / RFU CCDC152 (11743942_at) / Fold change /veh CCDC152 (11743942_at) / RFU ECM1 (11717891_a_at) / Fold change /veh ECM1 (11717891_a_at) / RFU IL23R (11748794_a_at) / Fold change /veh IL23R (11748794_a_at) / RFU TNFAIP8L3 (11732012_x_at) / Fold change /veh TNFAIP8L3 (11732012_x_at) / RFU MBOAT4 (11741988_at) / Fold change /veh MBOAT4 (11741988_at) / RFU 11764193_at / Fold change /veh 11764193_at / RFU TMEM53 (11763286_at) / Fold change /veh TMEM53 (11763286_at) / RFU MAGEB2 (11727129_at) / Fold change /veh MAGEB2 (11727129_at) / RFU TMEM200A (11744735_a_at) / Fold change /veh TMEM200A (11744735_a_at) / RFU CCDC152 (11751479_a_at) / Fold change /veh CCDC152 (11751479_a_at) / RFU FAM211A (11726209_a_at) / Fold change /veh FAM211A (11726209_a_at) / RFU RGS16 (11746705_a_at) / Fold change /veh RGS16 (11746705_a_at) / RFU VCAN (11755009_s_at) / Fold change /veh VCAN (11755009_s_at) / RFU RHOB (11743442_s_at) / Fold change /veh RHOB (11743442_s_at) / RFU RGS16 (11720943_a_at) / Fold change /veh RGS16 (11720943_a_at) / RFU RGS16 (11720944_at) / Fold change /veh RGS16 (11720944_at) / RFU, VPS4B / Fold change vs veh, VPS4B / RFU, CREB1 / Fold change vs veh, CREB1 / RFU, DNAJC13 / Fold change vs veh, DNAJC13 / RFU, GNAQ / Fold change vs veh, GNAQ / RFU, CDK5R1 / Fold change vs veh, CDK5R1 / RFU, ZRANB3 / Fold change vs veh, ZRANB3 / RFU, CUL4A / Fold change vs veh, CUL4A / RFU, CCNY / Fold change vs veh, CCNY / RFU, UFL1 / Fold change vs veh, UFL1 / RFU, COG3 / Fold change vs veh, COG3 / RFU, DIAPH2 / Fold change vs veh, DIAPH2 / RFU, SKA2 / Fold change vs veh, SKA2 / RFU, AFF3 / Fold change vs veh, AFF3 / RFU, LMF1 / Fold change vs veh, LMF1 / RFU, IPO11 / Fold change vs veh, IPO11 / RFU, DFFB / Fold change vs veh, DFFB / RFU, FOXP1 / Fold change vs veh, FOXP1 / RFU, CARD8 / Fold change vs veh, CARD8 / RFU, STRN3 / Fold change vs veh, STRN3 / RFU, ADK / Fold change vs veh, ADK / RFU, RASSF2 / Fold change vs veh, RASSF2 / RFU, WIPF1 / Fold change vs veh, WIPF1 / RFU, LARP1B / Fold change vs veh, LARP1B / RFU, RASA1 / Fold change vs veh, RASA1 / RFU, RB1 / Fold change vs veh, RB1 / RFU, PPFIA1 / Fold change vs veh, PPFIA1 / RFU, MAT2A / Fold change vs veh, MAT2A / RFU, CCT5 / Fold change vs veh, CCT5 / RFU, WDR92 / Fold change vs veh, WDR92 / RFU, CUX1 / Fold change vs veh, CUX1 / RFU, TTC7A / Fold change vs veh, TTC7A / RFU, TMEM135 / Fold change vs veh, TMEM135 / RFU, DEPTOR / Fold change vs veh, DEPTOR / RFU, CPM / Fold change vs veh, CPM / RFU, DNAJB6 / Fold change vs veh, DNAJB6 / RFU, CACNA2D3 / Fold change vs veh, CACNA2D3 / RFU, DTX4 / Fold change vs veh, DTX4 / RFU, TFCP2 / Fold change vs veh, TFCP2 / RFU, GMCL1 /// GMCL1P1 / Fold change vs veh, GMCL1 /// GMCL1P1 / RFU, AEBP2 / Fold change vs veh, AEBP2 / RFU, SNHG1 /// SNORD22 /// SNORD25 /// SNORD26 /// SNORD27 /// SNORD28 /// SNORD29 /// SNORD31 / Fold change vs veh, SNHG1 /// SNORD22 /// SNORD25 /// SNORD26 /// SNORD27 /// SNORD28 /// SNORD29 /// SNORD31 / Fold change (Aza/veh), C12orf56 (ProbeSet 11735607_a_at) / Fold change (ACY-1035/veh), C12orf56 (ProbeSet 11735607_a_at) / Fold change (Aza/veh), FGFR1OP (ProbeSet 11751329_s_at) / Fold change (ACY-1035/veh), FGFR1OP (ProbeSet 11751329_s_at) / Fold change (Aza/veh), VPS36 (ProbeSet 11739960_a_at) / Fold change (ACY-1035/veh), VPS36 (ProbeSet 11739960_a_at) / RFU SYPL1 (11715823_x_at) / Fold change /veh SYPL1 (11715823_x_at) / RFU IGFBP7 (11715501_s_at) / Fold change /veh IGFBP7 (11715501_s_at) / RFU REEP3 (11722064_at) / Fold change /veh REEP3 (11722064_at) / RFU IGLL1 (11728026_x_at) / Fold change /veh IGLL1 (11728026_x_at): dose or concentration left out as unconfirmed
Details: ProbeSet 11743362_s_at; LIST B

SMILES: Nc1ncn([C@@H]2O[C@H](CO)[C@@H](O)[C@H]2O)c(=O)n1 [azacitidine]
- RFU, ADSS: 624.28 RFU
